The text below walks through data of publication PMC7032632 (Experimental eye research, 2019).

pEC50: −log10 of the molar value. Ends that are not written are not given here.

In one assay the test system is cells presenting 67LR. The conditions noted are these: ref Gopalakrishna et al., 2018; Yu et al., 2009; cited from earlier work.
Assay [1] relates to VEGF-activated endothelial cells (primary human dermal microvascular EC). In kind it is cell-based. The conditions noted are these: 48 h.
Assay [2] has as its system choroidal neovascularization (CNV). The conditions noted are these: mouse, day 0 IVT injection; ref Wang et al., 2012; cited from earlier work.

Consider YIGSR, for which the “activity range in cells presenting 67LR” value in the assay on cells presenting 67LR was 2 to 20 µM.
Turning to NFGYDLYRVRSSMSPTTN [PEDF P18], the pEC50 (commonly the EC50 on a negative log10 scale, so that one unit is a factor of ten) in assay [1] was 8.00.
Ac-GYDLYRVRS-NH2 [PEDF 860] showed a pEC50 in assay [1] of 7.22.
The same measure, in the same setting: then Ac-GYDLYRV-NH2 [PEDF 862], with 7.52.
Regarding “Ac-GV-d-alloIle-Ser-Q-I-R-Pro-ethylamide [ABT-898]”, the “laser-induced CNV, IVT injection” value in assay [2] was “mitigate laser-induced CNV”.
